Experimental data published in US20240174672A1, “Spirocycle Containing Pyridone Compounds” (Protego Biopharma, Inc., priority 2022, published 2024).

Test system: immunoglobulin light chain protein WIL-FL T46L
Assay: Differential Scanning Fluorimetry (thermal shift) assay
Format: binding
Conditions: recombinant amyloidogenic full length light chain WIL-FL T46L; protein and compound incubated at RT for 30 min before dye
Method: Differential Scanning Fluorimetry Assay
The stabilization effects the compounds have on the immunoglobulin light chain protein was quantitively measured using a thermal shift assay. Recombinant amyloidogenic full length light chain protein WIL-FL T46L was produced in E. coli, purified, and used in the assay. The Thermal Shift Protein Stability Kit from Biotium was used and the assay was done in 96-well Plates following the manufacturer's instructions. The protein and compounds were incubated at RT for 30 min before adding the dye and subjected to the thermal shift assay. The thermal stability (Tm) of each sample was then determined using standard curve fitting methods and compared to vehicle. Data are expressed as temperature shift: [Tm]compound−[Tm]vehicle.
The compounds provided herein induce shifts in the ranges below: • 0-0.5° C.═* • >0.5-1° C.═** • >1-1.5° C.═*** • >1.5-2.5° C.═**** • >2.5° C.═*****

| SMILES | DSF temperature shift: [Tm]compound−[Tm]vehicle |
| --- | --- |
| CC[C@@]1(c2ccccc2)CCN(c2cc(C)n(CCN3CC4(CCN(c5nccn6cnnc56)CC4)NC3=O)c(=O)c2)C1 [Compound 1, (S)-8-([1,2,4]triazolo[4,3-a]pyrazin-8-yl)-3-(2-(4-(3-ethyl-3-phenylpyrrolidin-1-yl)-6-methyl-2-oxopyridin-1(2H)-yl)ethyl)-1,3,8-triazaspiro[4.5]decan-2-one] | ***** (>2.5° C.═*****) |
| Cc1cc(N2CC[C@@](C)(c3ccccc3)C2)cc(=O)n1CCN1CC2(CCN(c3ncnc4[nH]ncc34)CC2)NC1=O [Compound 9] | **** (>1.5-2.5° C.═****) |
| Cc1cc(N2CC[C@@](C)(c3ccccc3)C2)cc(=O)n1CCCN1CC2(CCN(c3nccn4ccnc34)CC2)NC1=O [Compound 10] | **** (>1.5-2.5° C.═****) |
| Cc1cc(N2CCC(C)(c3ccccc3)C2)cc(=O)n1CCN1CC2(CCN(c3ncccn3)C2)NC1=O (stereo not shown) [Compound 11, 3-(2-(6-methyl-4-(3-methyl-3-phenylpyrrolidin-1-yl)-2-oxopyridin-1(2H)-yl)ethyl)-7-(pyrimidin-2-yl)-1,3,7-triazaspiro[4.4]nonan-2-one] | *** (>1-1.5° C.═***) |
| Cc1cc(N2CC[C@](C)(c3ccccc3)C2)cc(=O)n1CCN1CC2(CCN(c3nccn4ccnc34)CC2)NC1=O [Compound 12] | *** (>1-1.5° C.═***) |
| Cc1cc(N2CC[C@@](C)(c3ccccc3)C2)cc(=O)n1CCCN1CC2(CCN(c3nccn4ccnc34)CC2)NC1=O [Compound 13] | ** (>0.5-1° C.═**) |
| CCOC(=O)c1ccc(N2CCC3(CC2)CN(CCn2c(C)cc(N4CC[C@](CC)(c5ccccc5)C4)cc2=O)C(=O)N3)cn1 [Compound 14] | ***** (>2.5° C.═*****) |
| CC[C@@]1(c2ccccc2)CCN(c2cc(C)n(CCN3CC4(CCN(c5cn6ccnc6cn5)CC4)NC3=O)c(=O)c2)C1 [Compound 15] | **** (>1.5-2.5° C.═****) |
| CC[C@@]1(c2ccccc2)CCN(c2cc(C)n(CCN3CC4(CCN(c5ccc6nncn6c5)CC4)NC3=O)c(=O)c2)C1 [Compound 16] | **** (>1.5-2.5° C.═****) |
| CC[C@]1(c2ccccc2)CCN(c2cc(C)n(CCN3CC4(CCN(c5ccc(C(=O)O)nn5)CC4)NC3=O)c(=O)c2)C1 [Compound 17] | ***** (>2.5° C.═*****) |
| CC[C@]1(c2ccccc2)CCN(c2cc(C)n(CCN3CC4(CCN(c5ccc(C(=O)OC)nn5)CC4)NC3=O)c(=O)c2)C1 [Compound 18] | ***** (>2.5° C.═*****) |
| CC[C@]1(c2ccccc2)CCN(c2cc(C)n(CCN3CC4(CCN(c5ccc(C(=O)O)nc5)CC4)NC3=O)c(=O)c2)C1 [Compound 19] | ** (>0.5-1° C.═**) |
| CC[C@]1(c2ccccc2)CCN(c2cc(C)n(CCN3CC4(CCN(c5cccc(C(=O)O)n5)CC4)NC3=O)c(=O)c2)C1 [Compound 20] | **** (>1.5-2.5° C.═****) |
| CC[C@]1(c2ccccc2)CCN(c2cc(C)n(CCN3CC4(CCN(c5cccc(C(=O)OC)n5)CC4)NC3=O)c(=O)c2)C1 [Compound 21] | **** (>1.5-2.5° C.═****) |
| CC[C@]1(c2ccccc2)CCN(c2cc(C)n(CCN3CC4(CCN(c5nccn6cnnc56)CC4)NC3=O)c(=O)c2)C1 [Compound 22] | *** (>1-1.5° C.═***) |
| Cc1nc(N2CC[C@](C)(c3ccccc3)C2)cc(=O)n1CCN1CC2(CCN(c3nccn4ccnc34)CC2)NC1=O [Compound 24] | *** (>1-1.5° C.═***) |
| Cc1cc(N2CC[C@@](C)(c3ccccc3)C2)cc(=O)n1CCCN1C(=O)NC2(CCN(c3nccn4ccnc34)CC2)C1=O [Compound 27] | **** (>1.5-2.5° C.═****) |
| Cc1cc(N2CCC(C)(c3ccccc3)C2)cc(=O)n1CCCN1C(=O)NC2(CCN(c3ncccn3)CC2)C1=O (stereo not shown) [Compound 28, 3-(3-(6-methyl-4-(3-methyl-3-phenylpyrrolidin-1-yl)-2-oxopyridin-1(2H)-yl)propyl)-8-(pyrimidin-2-yl)-1,3,8-triazaspiro[4.5]decane-2,4-dione] | **** (>1.5-2.5° C.═****) |
| Cc1cc(N2CCC(C)(c3ccccc3)C2)cc(=O)n1CCCN1C(=O)NC2(CCN(c3nccn4ccnc34)CC2)C1=O (stereo not shown) [Compound 29] | **** (>1.5-2.5° C.═****) |
| Cc1cc(N2CCC(C)(c3ccccc3)C2)cc(=O)n1CCN1C(=O)NC2(CCN(c3ncccn3)CC2)C1=O (stereo not shown) [Compound 30] | **** (>1.5-2.5° C.═****) |
| Cc1cc(N2CC[C@@](C)(c3ccccc3)C2)cc(=O)n1CCN1C(=O)NC2(CCN(c3nccn4cncc34)CC2)C1=O [Compound 31] | *** (>1-1.5° C.═***) |
| Cc1cc(O[C@H](C)c2ccccc2)cc(=O)n1CCN1C(=O)NC2(CCN(c3nccn4ccnc34)CC2)C1=O [Compound 32, (R)-8-(imidazo[1,2-a]pyrazin-8-yl)-3-(2-(6-methyl-2-oxo-4-(1-phenylethoxy)pyridin-1(2H)-yl)ethyl)-1,3,8-triazaspiro[4.5]decane-2,4-dione] | ** (>0.5-1° C.═**) |
| Cc1cc(N2CCC(C)(c3ccccc3)C2)cc(=O)n1CCN1C(=O)NC2(CCN(c3ncccn3)C2)C1=O (stereo not shown) [Compound 33] | *** (>1-1.5° C.═***) |
| Cc1cc(N2CCC(C)(c3ccccc3)C2=O)cc(=O)n1CCN1C(=O)NC2(CCN(c3ncccn3)C2)C1=O (stereo not shown) [Compound 34, 3-(2-(6-methyl-4-(3-methyl-2-oxo-3-phenylpyrrolidin-1-yl)-2-oxopyridin-1(2H)-yl)ethyl)-7-(pyrimidin-2-yl)-1,3,7-triazaspiro[4.4]nonane-2,4-dione] | * (0-0.5° C.═*) |
| Cc1cc(N2CC[C@](C)(c3ccccc3)C2)cc(=O)n1CCCN1C(=O)NC2(CCN(c3nccn4ccnc34)CC2)C1=O [Compound 35] | *** (>1-1.5° C.═***) |
